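1) Cells in 96-well plates. 2) Compound, 48 h, 5 concentrations. 3) Linear interpolation between surrounding doses. 4) Unreached endpoint = highest concentration. Here, GI50 denotes the concentration required for 50% inhibition of growth.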 Active and inactive are the calls of the source. Rule as the data show it: active = GI50 up to about 1.1 µM and inactive = higher.
How the values were obtained:
Assay in all cases: NCI anticancer screen, dose series, 48 h
SR = test system: SR
NCI-H23 = test system: NCI-H23
SK-OV-3 = test system: SK-OV-3
CCRF-CEM = test system: CCRF-CEM
HCT-15 = test system: HCT-15
OVCAR-3 = test system: OVCAR-3
T47D = test system: T47D
K562 = test system: K562
Malme-3M = test system: Malme-3M
EKVX = test system: EKVX
HCT-116 = test system: HCT-116
SF-295 = test system: SF-295
786-0 = test system: 786-0
Hs-578T = test system: Hs-578T
HOP-92 = test system: HOP-92
LOX IMVI = test system: LOX IMVI
NCI/ADR-RES = test system: NCI/ADR-RES
MOLT-4 = test system: MOLT-4
SN12C = test system: SN12C
M14 = test system: M14
SK-MEL-28 = test system: SK-MEL-28
A498 = test system: A498
NCI-H522 = test system: NCI-H522
SNB-75 = test system: SNB-75
RPMI-8226 = test system: RPMI-8226
A549 = test system: A549
SNB-19 = test system: SNB-19
SK-MEL-5 = test system: SK-MEL-5
DU-145 = test system: DU-145
SF-268 = test system: SF-268
ACHN = test system: ACHN
KM12 = test system: KM12
OVCAR-4 = test system: OVCAR-4
UO-31 = test system: UO-31
CAKI-1 = test system: CAKI-1
COLO 205 = test system: COLO 205
MDA-MB-231 = test system: MDA-MB-231
TK-10 = test system: TK-10
RXF 393 = test system: RXF 393
UACC-62 = test system: UACC-62
PC-3 = test system: PC-3
SK-MEL-2 = test system: SK-MEL-2
MCF7 = test system: MCF7
HT-29 = test system: HT-29
HCC 2998 = test system: HCC 2998
MDA-N = test system: MDA-N
U-251 = test system: U-251
OVCAR-5 = test system: OVCAR-5
SW-620 = test system: SW-620
NCI-H460 = test system: NCI-H460
SF-539 = test system: SF-539
BT-549 = test system: BT-549
UACC-257 = test system: UACC-257
HOP-62 = test system: HOP-62
MDA-MB-435 = test system: MDA-MB-435
IGROV-1 = test system: IGROV-1
OVCAR-8 = test system: OVCAR-8
NCI-H226 = test system: NCI-H226

With `CN(C)Cc1cc(C(C)(C)C)cc(CNC2CCCCC2)c1O` the GI50 (SR) was 19.7 µM (inactive), the GI50 (NCI-H23) was 69.7 µM (inactive) and the GI50 (SK-OV-3) was 30.7 µM (inactive). The GI50 (CCRF-CEM) was 12.9 µM (inactive), the GI50 (HCT-15) was 28.8 µM and the GI50 (OVCAR-3) was 29.9 µM (inactive). For the same compound, the GI50 (T47D) was 63.5 µM (inactive), the GI50 (K562) was 22.1 µM (inactive) and the GI50 (Malme-3M) was 25.6 µM (inactive). For the same compound, the GI50 (EKVX) was 15.8 µM (inactive), the GI50 (HCT-116) was 25.4 µM (inactive) and the GI50 (SF-295) was 23 µM (inactive). For the same compound, the GI50 (786-0) was 27.9 µM (inactive), the GI50 (Hs-578T) was 61.2 µM (inactive) and the GI50 (HOP-92) was 19.5 µM (inactive). The GI50 (LOX IMVI) was 22.1 µM (inactive), the GI50 (NCI/ADR-RES) was 25.2 µM (inactive) and the GI50 (MOLT-4) was 12.3 µM (inactive). The GI50 (SN12C) was 35.6 µM (inactive), the GI50 (M14) was 16.1 µM (inactive) and the GI50 (SK-MEL-28) was 33.3 µM (inactive). The GI50 (A498) was 27.9 µM (inactive), the GI50 (NCI-H522) was 24.2 µM (inactive) and the GI50 (SNB-75) was 52.4 µM (inactive). The GI50 (RPMI-8226) was 16.7 µM (inactive), the GI50 (A549) was 29.6 µM (inactive) and the GI50 (SNB-19) was > 100 µM (inactive). For the same compound, the GI50 (SK-MEL-5) was 15.5 µM (inactive), the GI50 (DU-145) was 40.9 µM (inactive) and the GI50 (SF-268) was 18.7 µM (inactive). For the same compound, the GI50 (ACHN) was 42.9 µM (inactive), the GI50 (KM12) was 30.4 µM (inactive) and the GI50 (OVCAR-4) was 35.6 µM (inactive). The GI50 (UO-31) was 15.6 µM (inactive), the GI50 (CAKI-1) was 44.6 µM (inactive) and the GI50 (COLO 205) was 15.9 µM (inactive). For the same compound, the GI50 (MDA-MB-231) was 42.3 µM (inactive), the GI50 (TK-10) was 27.7 µM (inactive) and the GI50 (RXF 393) was 29.2 µM (inactive). For the same compound, the GI50 (UACC-62) was 51.9 µM (inactive), the GI50 (PC-3) was 24.6 µM (inactive) and the GI50 (SK-MEL-2) was > 100 µM (inactive). The GI50 (MCF7) was 29.4 µM (inactive), the GI50 (HT-29) was 17.5 µM (inactive) and the GI50 (HCC 2998) was 11.6 µM (inactive). The GI50 (MDA-N) was 83.8 µM (inactive), the GI50 (U-251) was 45 µM (inactive) and the GI50 (OVCAR-5) was 19.2 µM (inactive). The GI50 (SW-620) was 33.5 µM (inactive), the GI50 (NCI-H460) was 20.4 µM (inactive) and the GI50 (SF-539) was 17.7 µM (inactive). For the same compound, the GI50 (BT-549) was 76.7 µM (inactive), the GI50 (UACC-257) was 26.2 µM (inactive) and the GI50 (HOP-62) was 41.2 µM (inactive). The GI50 (MDA-MB-435) was 65.9 µM (inactive) and the GI50 (IGROV-1) was 29.4 µM (inactive).
`O=C1N/C(=N/N=C\c2ccccc2)N/C1=C/c1ccc(Cl)cc1` was tested, and the GI50 (OVCAR-8) was 21.7 µM (inactive), the GI50 (SR) was 13.3 µM (inactive) and the GI50 (NCI-H23) was 19 µM (inactive). The GI50 (SK-OV-3) was 20.7 µM (inactive), the GI50 (HCT-15) was 15.3 µM and the GI50 (OVCAR-3) was 17.4 µM (inactive). The GI50 (T47D) was 21 µM (inactive), the GI50 (K562) was 34 µM (inactive) and the GI50 (Malme-3M) was 20.8 µM (inactive). For the same compound, the GI50 (EKVX) was 19.4 µM (inactive), the GI50 (HCT-116) was 26.9 µM (inactive) and the GI50 (SF-295) was 25.7 µM (inactive). The GI50 (786-0) was 29.8 µM (inactive), the GI50 (Hs-578T) was 20.5 µM (inactive) and the GI50 (LOX IMVI) was 26.1 µM (inactive). For the same compound, the GI50 (NCI/ADR-RES) was 23.2 µM (inactive), the GI50 (MOLT-4) was 15.5 µM (inactive) and the GI50 (SN12C) was 23.2 µM (inactive). The GI50 (M14) was 37.4 µM (inactive), the GI50 (SK-MEL-28) was 39 µM (inactive) and the GI50 (NCI-H522) was 18.5 µM (inactive). For the same compound, the GI50 (SNB-75) was 18.7 µM (inactive), the GI50 (RPMI-8226) was 20 µM (inactive) and the GI50 (A549) was 25.6 µM (inactive). The GI50 (SNB-19) was 15.6 µM (inactive), the GI50 (SK-MEL-5) was 19.3 µM (inactive) and the GI50 (DU-145) was 28.6 µM (inactive). The GI50 (SF-268) was 22.2 µM (inactive), the GI50 (ACHN) was 13.8 µM (inactive) and the GI50 (KM12) was 27.1 µM (inactive). The GI50 (OVCAR-4) was 12.8 µM (inactive), the GI50 (UO-31) was 16.2 µM (inactive) and the GI50 (CAKI-1) was 33.2 µM (inactive). For the same compound, the GI50 (COLO 205) was 32.2 µM (inactive), the GI50 (MDA-MB-231) was 29.3 µM (inactive) and the GI50 (TK-10) was 42.3 µM (inactive). The GI50 (RXF 393) was 21.2 µM (inactive), the GI50 (PC-3) was 18.4 µM (inactive) and the GI50 (SK-MEL-2) was 26.5 µM (inactive). For the same compound, the GI50 (MCF7) was 24.7 µM (inactive), the GI50 (HT-29) was 33 µM (inactive) and the GI50 (HCC 2998) was 15.9 µM (inactive). The GI50 (MDA-N) was 34.3 µM (inactive), the GI50 (U-251) was 22.8 µM (inactive) and the GI50 (OVCAR-5) was 26.4 µM (inactive). The GI50 (SW-620) was 30.6 µM (inactive), the GI50 (NCI-H460) was 18.4 µM (inactive) and the GI50 (SF-539) was 23.9 µM (inactive). The GI50 (BT-549) was 16.5 µM (inactive), the GI50 (UACC-257) was 43 µM (inactive) and the GI50 (HOP-62) was 17.1 µM (inactive). For the same compound, the GI50 (MDA-MB-435) was 33.3 µM (inactive), the GI50 (IGROV-1) was 14.6 µM (inactive) and the GI50 (NCI-H226) was 15.5 µM (inactive).
`O=c1c2cc(Cl)cc(Cl)c2oc2nc3n(c(=O)c12)CCCS3` was tested, and the GI50 (SR) was > 100 µM (inactive), the GI50 (NCI-H23) was > 100 µM (inactive) and the GI50 (SK-OV-3) was > 100 µM (inactive). For the same compound, the GI50 (CCRF-CEM) was 92.5 µM (inactive), the GI50 (HCT-15) was over 100 µM and the GI50 (OVCAR-3) was 95.9 µM (inactive). For the same compound, the GI50 (T47D) was 57.1 µM (inactive), the GI50 (K562) was 76 µM (inactive) and the GI50 (Malme-3M) was > 100 µM (inactive). The GI50 (EKVX) was > 100 µM (inactive), the GI50 (HCT-116) was > 100 µM (inactive) and the GI50 (SF-295) was > 100 µM (inactive). For the same compound, the GI50 (786-0) was > 100 µM (inactive), the GI50 (Hs-578T) was > 100 µM (inactive) and the GI50 (HOP-92) was > 100 µM (inactive). The GI50 (NCI/ADR-RES) was > 100 µM (inactive), the GI50 (MOLT-4) was 57.8 µM (inactive) and the GI50 (SN12C) was > 100 µM (inactive). For the same compound, the GI50 (M14) was > 100 µM (inactive), the GI50 (SK-MEL-28) was > 100 µM (inactive) and the GI50 (A498) was > 100 µM (inactive). For the same compound, the GI50 (NCI-H522) was 16.7 µM (inactive), the GI50 (SNB-75) was > 100 µM (inactive) and the GI50 (RPMI-8226) was > 100 µM (inactive). For the same compound, the GI50 (A549) was > 100 µM (inactive), the GI50 (SNB-19) was > 100 µM (inactive) and the GI50 (SK-MEL-5) was > 100 µM (inactive). For the same compound, the GI50 (DU-145) was > 100 µM (inactive), the GI50 (SF-268) was > 100 µM (inactive) and the GI50 (ACHN) was > 100 µM (inactive). For the same compound, the GI50 (KM12) was > 100 µM (inactive), the GI50 (OVCAR-4) was > 100 µM (inactive) and the GI50 (UO-31) was 18.8 µM (inactive). For the same compound, the GI50 (CAKI-1) was > 100 µM (inactive), the GI50 (COLO 205) was > 100 µM (inactive) and the GI50 (MDA-MB-231) was > 100 µM (inactive). For the same compound, the GI50 (TK-10) was > 100 µM (inactive), the GI50 (RXF 393) was > 100 µM (inactive) and the GI50 (UACC-62) was > 100 µM (inactive). The GI50 (PC-3) was > 100 µM (inactive), the GI50 (SK-MEL-2) was > 100 µM (inactive) and the GI50 (MCF7) was 70.5 µM (inactive). The GI50 (HCC 2998) was > 100 µM (inactive), the GI50 (MDA-N) was > 100 µM (inactive) and the GI50 (U-251) was > 100 µM (inactive). For the same compound, the GI50 (OVCAR-5) was > 100 µM (inactive), the GI50 (SW-620) was > 100 µM (inactive) and the GI50 (NCI-H460) was > 100 µM (inactive). For the same compound, the GI50 (SF-539) was > 100 µM (inactive), the GI50 (BT-549) was 47.6 µM (inactive) and the GI50 (UACC-257) was > 100 µM (inactive). The GI50 (HOP-62) was > 100 µM (inactive), the GI50 (MDA-MB-435) was > 100 µM (inactive) and the GI50 (IGROV-1) was > 100 µM (inactive). For the same compound, the GI50 (NCI-H226) was > 100 µM (inactive).

— ChEMBL document CHEMBL1201862, “PubChem BioAssay data set” (2004)
